Results published in ChEMBL document CHEMBL4376889, “Discovery of a Brain-Penetrant ATP-Competitive Inhibitor of the Mechanistic Target of Rapamycin (mTOR) for CNS Disorders” (J Med Chem, 2020).
Values after ≈ are worked out from the molar mass of the structure shown. Active and inactive are the calls of the source. No cut-off for these calls is given here.

Key:
[1] = target: Serine/threonine-protein kinase mTOR (Rattus norvegicus, UniProt P42346, S2215F); test: Inhibition of mTOR S2215F mutant in rat primary cortical neuron assessed as reduction in PS6 phosphorylation incubated for 4 hrs by Western blot analysis (reference value: 19 nM)
[2] = Volume of distribution at steady state in C57BL/6 mouse at 1 mg/kg, iv or 5 mg/kg, po by HPLC analysis; type: ADME, organism-based; details: in vivo, read-out: Vdss
Cytochrome P450 2C9 = Cytochrome P450 2C9 (Homo sapiens, UniProt P11712); test: Inhibition of CYP2C9 (unknown origin); type: ADME
[3] = target: Serine/threonine-protein kinase ATR (Homo sapiens, UniProt Q13535); test: Inhibition of ATR (unknown origin) assessed as reduction in CHK1 phosphorylation by cell based assay
[4] = Selectivity index, ratio of IC50 for DNAPK (unknown origin) to IC50 for inhibition of mTOR in mouse MEF cells harboring TSC1 deletion mutant; type: cell-based
[5] = Ratio of drug concentration in brain to plasma in Sprague-Dawley rat at 3 mg/kg, po incubated for 24 hrs by LC-MS/MS analysis; type: ADME, organism-based; details: read-out: BPR
[6] = AUC (0 to t) in C57BL/6 mouse at 1 mg/kg, iv by HPLC analysis; type: ADME, organism-based; details: in vivo
[7] = target: DNA-dependent protein kinase catalytic subunit (Homo sapiens, UniProt P78527); test: Inhibition of DNAPK (unknown origin)
[8] = Stability in rat liver microsomes assessed as intrinsic clearance; type: ADME, Microsome; details: read-out: CLH
[9] = Ratio of drug concentration in brain to plasma in Sprague-Dawley rat at 3 mg/kg, po incubated for 1 hr by LC-MS/MS analysis; type: ADME, organism-based; details: read-out: BPR
[10] = Selectivity index, ratio of IC50 for PDE4D (unknown origin) to IC50 for inhibition of mTOR in mouse MEF cells harboring TSC1 deletion mutant; type: cell-based
[11] = Drug uptake in C57BL/6J mouse plasma at 10 mg/kg, po incubated for 3 hrs by LC-MS/MS analysis; type: ADME, organism-based
[12] = target: Phosphatidylinositol 4,5-bisphosphate 3-kinase catalytic subunit gamma isoform (Homo sapiens, UniProt P48736); test: Inhibition of PI3Kgamma (unknown origin)
Cortical neurone = test: Inhibition of oversizing of mouse primary cortical neuron harboring TSC1 deletion mutant at 200 nM incubated for 7 days by immunofluorescence assay; type: functional, cell-based; details: 168 h
[13] = Solubility of compound at pH 6.8; type: physicochemical; details: buffer
[14] = Protein binding in Sprague-Dawley rat brain homogenate at 5 uM incubated for 4 hrs by LC-MS/MS analysis; type: ADME, tissue-based; details: read-out: PB (converted)
Mus musculus = test: In vivo inhibition of mTOR pathway in C57BL/6J mouse assessed as reduction in mTORC1/mTORC2 complex by measuring PS6 phosphorylation level at 1 to 10 mg/kg, po measured after 8 hrs by Western blot analysis; type: functional, organism-based
[15] = target: Serine/threonine-protein kinase mTOR (Mus musculus, UniProt Q9JLN9); test: Inhibition of mTOR in mouse MEF cells harboring TSC1 deletion mutant assessed as reduction in PS6 phosphorylation incuabted for 2 hrs alexa fluor 594 and Hoechst staining based fluorescence assay; type: cell-based
[16] = Drug uptake in C57BL/6J mouse plasma at 3 mg/kg, po incubated for 3 hrs by LC-MS/MS analysis; type: ADME, organism-based
Cytochrome P450 3A4 = Cytochrome P450 3A4 (Homo sapiens, UniProt P08684); test: Inhibition of CYP3A4 (unknown origin); type: ADME
[17] = target: Myosin light chain kinase, smooth muscle (Homo sapiens) (UniProt Q15746); test: Inhibition of wild-type human […] MYLK (M854 to E1845 residues) expressed in mammalian expression system at 10000 nM by Kinomescan method
[18] = Ratio of drug concentration in brain to plasma in C57BL/6 mouse at 1 mg/kg, iv incubated for 7 hrs by LC-MS/MS analysis; type: ADME, organism-based; details: read-out: BPR
[19] = Drug uptake in C57BL/6J mouse brain at 10 mg/kg, po incubated for 3 hrs by LC-MS/MS analysis; type: ADME, organism-based; details: read-out: Drug uptake
[20] = Ratio of drug concentration in brain to plasma in C57BL/6 mouse at 1 mg/kg, iv incubated for 0.5 hrs by LC-MS/MS analysis; type: ADME, organism-based; details: read-out: BPR
[21] = Stability in rat liver microsomes assessed as intrinsic clearance at 1 uM incubated for 30 mins by LC-MS/MS analysis; type: ADME, Microsome; details: read-out: CLH
[22] = Ratio of drug concentration in brain to plasma in C57BL/6 mouse at 1 mg/kg, iv incubated for 2 hrs by LC-MS/MS analysis; type: ADME, organism-based; details: read-out: BPR
MDR1 = test: Efflux ratio of permeability from basolateral to apical over apical to basolateral side in MDCK-MDR1 cells; type: ADME, cell-based, Canis lupus familiaris; details: dog
[23] = target: Phosphatidylinositol 4,5-bisphosphate 3-kinase catalytic subunit alpha isoform (Homo sapiens, UniProt P42336); test: Inhibition of PI3Kalpha (unknown origin)
[24] = AUC (0 to t) in Sprague-Dawley rat at 1 mg/kg, iv by HPLC analysis; type: ADME, organism-based; details: in vivo
[25] = Drug uptake in C57BL/6J mouse plasma at 1 mg/kg, po incubated for 3 hrs by LC-MS/MS analysis; type: ADME, organism-based
[26] = Protein binding in C57BL/6 mouse plasma at 5 uM incubated for 4 hrs by LC-MS/MS analysis; type: ADME, cell-free; details: read-out: PPB
[27] = target: Phosphatidylinositol 4,5-bisphosphate 3-kinase catalytic subunit delta isoform (Homo sapiens, UniProt O00329); test: Inhibition of PI3Kdelta (unknown origin)
[28] = Tmax in C57BL/6 mouse at 1 mg/kg, iv or 5 mg/kg, po by HPLC analysis; type: ADME, organism-based; details: in vivo
[29] = target: Serine/threonine-protein kinase mTOR (Rattus norvegicus, UniProt P42346, C1483Y); test: Inhibition of mTOR C1483Y mutant in rat primary cortical neuron assessed as reduction in PS6 phosphorylation incubated for 4 hrs by Western blot analysis (reference value: 19 nM)
[30] = target: Serine/threonine-protein kinase mTOR (Rattus norvegicus, UniProt P42346, L1460P); test: Inhibition of mTOR L1460P mutant in rat primary cortical neuron assessed as reduction in PS6 phosphorylation incubated for 4 hrs by Western blot analysis (reference value: 19 nM)
[31] = target: Serine/threonine-protein kinase mTOR (Rattus norvegicus, UniProt P42346, L2427P); test: Inhibition of mTOR L2427P mutant in rat primary cortical neuron assessed as reduction in PS6 phosphorylation incubated for 4 hrs by Western blot analysis (reference value: 19 nM)
[32] = target: Serine/threonine-protein kinase mTOR (Rattus norvegicus, UniProt P42346, E2419K); test: Inhibition of mTOR E2419K mutant in rat primary cortical neuron assessed as reduction in PS6 phosphorylation incubated for 4 hrs by Western blot analysis (reference value: 19 nM)
[33] = AUC (0 to t) in Sprague-Dawley rat at 3 mg/kg, po by HPLC analysis; type: ADME, organism-based; details: in vivo
[34] = Drug uptake in C57BL/6J mouse brain at 3 mg/kg, po incubated for 3 hrs by LC-MS/MS analysis; type: ADME, organism-based; details: read-out: Drug uptake

Serine/threonine-protein kinase mTOR (Rattus norvegicus, UniProt P42346, E2419K), sequence (P42346 whole entry E2419K, looked up): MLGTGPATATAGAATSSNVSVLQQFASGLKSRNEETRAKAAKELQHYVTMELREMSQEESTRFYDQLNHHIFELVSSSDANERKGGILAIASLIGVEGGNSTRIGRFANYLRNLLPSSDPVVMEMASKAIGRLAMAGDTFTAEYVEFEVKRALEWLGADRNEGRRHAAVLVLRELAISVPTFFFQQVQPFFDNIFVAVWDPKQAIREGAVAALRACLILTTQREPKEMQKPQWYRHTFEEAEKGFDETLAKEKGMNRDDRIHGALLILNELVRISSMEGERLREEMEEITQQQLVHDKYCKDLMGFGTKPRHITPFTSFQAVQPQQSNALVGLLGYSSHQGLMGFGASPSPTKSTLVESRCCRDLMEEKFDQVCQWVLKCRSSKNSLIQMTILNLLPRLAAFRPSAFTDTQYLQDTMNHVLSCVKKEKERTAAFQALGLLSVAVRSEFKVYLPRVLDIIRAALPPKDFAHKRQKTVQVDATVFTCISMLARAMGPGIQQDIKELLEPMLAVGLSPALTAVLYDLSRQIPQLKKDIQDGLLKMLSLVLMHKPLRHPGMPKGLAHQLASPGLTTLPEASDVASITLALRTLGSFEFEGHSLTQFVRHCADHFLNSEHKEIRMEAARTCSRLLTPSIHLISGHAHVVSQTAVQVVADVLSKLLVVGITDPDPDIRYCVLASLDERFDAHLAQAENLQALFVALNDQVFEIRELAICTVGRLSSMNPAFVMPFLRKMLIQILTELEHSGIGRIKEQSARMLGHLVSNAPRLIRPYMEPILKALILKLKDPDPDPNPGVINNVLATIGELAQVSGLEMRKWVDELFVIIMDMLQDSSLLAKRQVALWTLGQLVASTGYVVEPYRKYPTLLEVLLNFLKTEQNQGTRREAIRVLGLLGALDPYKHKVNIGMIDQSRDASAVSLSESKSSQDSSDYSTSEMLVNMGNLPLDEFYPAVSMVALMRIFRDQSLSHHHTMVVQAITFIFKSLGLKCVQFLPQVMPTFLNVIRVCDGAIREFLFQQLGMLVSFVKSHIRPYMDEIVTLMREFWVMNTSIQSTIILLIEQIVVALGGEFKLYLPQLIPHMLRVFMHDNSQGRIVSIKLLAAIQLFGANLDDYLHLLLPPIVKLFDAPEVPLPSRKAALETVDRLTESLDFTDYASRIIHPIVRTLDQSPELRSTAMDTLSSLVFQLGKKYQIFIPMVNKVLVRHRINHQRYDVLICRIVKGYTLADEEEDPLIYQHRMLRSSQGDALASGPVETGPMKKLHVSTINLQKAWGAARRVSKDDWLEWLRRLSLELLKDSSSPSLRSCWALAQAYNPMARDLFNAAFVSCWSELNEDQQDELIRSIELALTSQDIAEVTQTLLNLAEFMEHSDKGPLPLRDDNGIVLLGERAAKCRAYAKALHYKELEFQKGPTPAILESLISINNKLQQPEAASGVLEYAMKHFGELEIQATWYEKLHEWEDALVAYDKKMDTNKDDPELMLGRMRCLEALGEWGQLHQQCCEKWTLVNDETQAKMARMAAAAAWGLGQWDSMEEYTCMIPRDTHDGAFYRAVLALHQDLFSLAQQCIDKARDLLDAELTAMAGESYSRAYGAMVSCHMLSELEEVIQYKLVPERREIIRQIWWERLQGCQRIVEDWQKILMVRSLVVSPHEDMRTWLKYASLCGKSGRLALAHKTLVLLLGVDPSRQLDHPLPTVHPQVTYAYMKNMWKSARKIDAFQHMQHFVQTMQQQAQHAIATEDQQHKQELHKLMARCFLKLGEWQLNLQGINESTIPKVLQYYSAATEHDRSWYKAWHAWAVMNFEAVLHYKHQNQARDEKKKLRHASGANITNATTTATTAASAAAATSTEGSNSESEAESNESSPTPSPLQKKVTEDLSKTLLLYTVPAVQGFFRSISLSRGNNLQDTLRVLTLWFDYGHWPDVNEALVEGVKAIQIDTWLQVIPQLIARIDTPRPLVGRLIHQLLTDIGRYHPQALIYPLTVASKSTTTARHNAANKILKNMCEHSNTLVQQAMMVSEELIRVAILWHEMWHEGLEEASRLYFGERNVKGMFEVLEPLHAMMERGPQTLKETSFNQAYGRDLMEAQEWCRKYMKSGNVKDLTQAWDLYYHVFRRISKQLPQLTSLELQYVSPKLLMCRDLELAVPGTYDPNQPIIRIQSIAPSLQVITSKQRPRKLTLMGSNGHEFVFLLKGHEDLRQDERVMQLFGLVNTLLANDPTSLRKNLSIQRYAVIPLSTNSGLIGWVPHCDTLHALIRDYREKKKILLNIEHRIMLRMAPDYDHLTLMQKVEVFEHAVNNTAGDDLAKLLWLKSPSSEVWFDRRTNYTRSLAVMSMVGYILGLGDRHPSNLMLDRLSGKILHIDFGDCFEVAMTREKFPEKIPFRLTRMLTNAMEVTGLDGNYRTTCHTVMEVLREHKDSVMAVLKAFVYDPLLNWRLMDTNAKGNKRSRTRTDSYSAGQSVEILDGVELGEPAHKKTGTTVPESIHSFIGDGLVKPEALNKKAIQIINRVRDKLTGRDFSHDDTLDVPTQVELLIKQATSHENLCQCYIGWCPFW
Cytochrome P450 3A4, sequence (P08684 whole entry, the tested form may be a part): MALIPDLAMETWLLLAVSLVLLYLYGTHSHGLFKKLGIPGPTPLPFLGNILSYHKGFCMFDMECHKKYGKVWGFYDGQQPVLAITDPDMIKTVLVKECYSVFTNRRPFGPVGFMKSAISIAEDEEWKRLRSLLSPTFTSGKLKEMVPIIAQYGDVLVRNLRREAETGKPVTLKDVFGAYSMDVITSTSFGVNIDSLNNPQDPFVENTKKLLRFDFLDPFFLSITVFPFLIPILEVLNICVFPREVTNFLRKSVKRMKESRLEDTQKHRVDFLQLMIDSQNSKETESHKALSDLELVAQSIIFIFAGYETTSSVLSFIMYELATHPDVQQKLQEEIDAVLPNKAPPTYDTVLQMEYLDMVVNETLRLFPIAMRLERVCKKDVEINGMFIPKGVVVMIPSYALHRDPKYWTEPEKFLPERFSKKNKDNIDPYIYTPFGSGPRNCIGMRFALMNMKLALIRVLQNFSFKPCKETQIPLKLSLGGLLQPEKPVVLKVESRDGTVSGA
Phosphatidylinositol 4,5-bisphosphate 3-kinase catalytic subunit delta isoform, sequence (O00329 whole entry, canonical isoform): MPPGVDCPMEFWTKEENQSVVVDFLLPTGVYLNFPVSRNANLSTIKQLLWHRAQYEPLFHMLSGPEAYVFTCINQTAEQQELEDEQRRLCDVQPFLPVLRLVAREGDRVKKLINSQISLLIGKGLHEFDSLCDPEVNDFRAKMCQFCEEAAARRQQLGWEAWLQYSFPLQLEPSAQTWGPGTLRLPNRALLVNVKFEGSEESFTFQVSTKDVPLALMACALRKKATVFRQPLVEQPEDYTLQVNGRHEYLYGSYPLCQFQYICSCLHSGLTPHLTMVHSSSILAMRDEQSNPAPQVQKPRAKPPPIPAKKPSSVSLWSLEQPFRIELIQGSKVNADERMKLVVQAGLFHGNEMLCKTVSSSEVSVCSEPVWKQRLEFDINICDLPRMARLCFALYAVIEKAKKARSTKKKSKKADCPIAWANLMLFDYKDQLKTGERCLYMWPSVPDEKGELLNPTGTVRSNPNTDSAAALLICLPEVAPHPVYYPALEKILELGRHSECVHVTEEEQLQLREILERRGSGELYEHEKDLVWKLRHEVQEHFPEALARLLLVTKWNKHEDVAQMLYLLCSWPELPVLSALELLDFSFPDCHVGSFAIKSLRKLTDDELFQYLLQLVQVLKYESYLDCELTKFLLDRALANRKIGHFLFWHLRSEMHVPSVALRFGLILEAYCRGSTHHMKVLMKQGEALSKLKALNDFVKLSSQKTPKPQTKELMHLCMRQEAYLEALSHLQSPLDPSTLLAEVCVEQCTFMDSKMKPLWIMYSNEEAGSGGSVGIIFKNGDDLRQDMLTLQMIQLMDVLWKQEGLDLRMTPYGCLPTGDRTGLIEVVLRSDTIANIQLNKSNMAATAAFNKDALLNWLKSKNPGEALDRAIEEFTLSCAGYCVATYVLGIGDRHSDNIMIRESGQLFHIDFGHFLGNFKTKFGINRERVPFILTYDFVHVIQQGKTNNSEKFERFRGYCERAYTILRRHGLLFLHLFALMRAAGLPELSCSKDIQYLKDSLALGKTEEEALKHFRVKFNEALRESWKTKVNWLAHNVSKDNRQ
Cytochrome P450 2C9, sequence (P11712 whole entry): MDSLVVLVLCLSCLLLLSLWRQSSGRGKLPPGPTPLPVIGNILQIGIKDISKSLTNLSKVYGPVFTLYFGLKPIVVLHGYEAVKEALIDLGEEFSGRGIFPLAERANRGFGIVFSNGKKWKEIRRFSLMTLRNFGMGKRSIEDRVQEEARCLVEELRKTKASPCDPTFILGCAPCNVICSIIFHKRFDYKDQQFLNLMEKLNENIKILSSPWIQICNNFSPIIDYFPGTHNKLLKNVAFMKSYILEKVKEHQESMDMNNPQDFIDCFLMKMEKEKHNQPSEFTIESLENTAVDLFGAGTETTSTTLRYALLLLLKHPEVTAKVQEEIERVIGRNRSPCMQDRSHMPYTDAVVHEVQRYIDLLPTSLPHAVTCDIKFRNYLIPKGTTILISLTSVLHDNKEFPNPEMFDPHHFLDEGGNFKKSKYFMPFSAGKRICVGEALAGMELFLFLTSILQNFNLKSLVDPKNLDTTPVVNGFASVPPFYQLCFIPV

## C[C@@H]1COCCN1c1nc(N2CCOC[C@@H]2C)nc2sc(-c3cc[nH]n3)nc12
[1]
  IC50: 17 nM
[2]
  Vd: 2.3 L/kg
Cytochrome P450 2C9
  IC50: > 50000 nM
[3]
  IC50: 394 nM
[4]
  Ratio IC50: 230
[5]
  Kp at 24 h: 3.1
[6]
  AUC(0-t): 4.41 µM·h
[7]
  IC50: 1290 nM
[8]
  microsomal CLint: 42 µL/min/mg
[9]
  Kp at 1 h: 4
[10]
  Ratio IC50: 38
[11]
  concentration at 3 h: 4470 nM
[12]
  IC50: > 10000 nM
Cortical neurone
  IC50: 30 nM
[13]
  solubility: 120 µg/mL (≈ 299 µM)
[14]
  fraction unbound at 4 h, 5 µM: 0.004
Mus musculus
  inhibition: Active
[15]
  IC50: 5.6 nM
[16]
  concentration at 3 h: 2210 nM
Cytochrome P450 3A4
  K: 0.006 min⁻¹
[17]
  inhibition: Active
[18]
  Kp at 7 h: 1.2
[19]
  concentration at 3 h: 5820 nM
[20]
  Kp at 0.5 h: 1
[21]
  microsomal CLint at 1 µM: 42 µL/min/mg
[22]
  Kp at 2 h: 1.2
MDR1
  efflux ratio: 0.93
[23]
  IC50: 2200 nM
[24]
  AUC(0-t): 4.34 µM·h
[25]
  concentration at 3 h: 826 nM
[26]
  fraction unbound at 4 h, 5 µM: < 0.01
[27]
  IC50: 1700 nM
[28]
  Tmax: 1.3 h
[29]
  IC50: 37 nM
[30]
  IC50: 11 nM
[31]
  IC50: 24 nM
[32]
  IC50: 22 nM
[33]
  AUC(0-t): 10.5 µM·h
[34]
  concentration at 3 h: 2390 nM
